Experimental findings from ChEMBL document CHEMBL1201862, “PubChem BioAssay data set” (2004) are described below.

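In this assay, cells in 96-well plates receive the compound at five concentrations for 48 hours. Endpoints are linearly interpolated between the surrounding concentrations. GI50: concentration for 50% inhibition of growth.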 Activity calls are given as the source filed them. Cut-off read from the data, not from the text of the source: active = GI50 up to about 1.1 µM and inactive = higher. Bounds are passed on as bounds.

What all share (assay): NCI anticancer screen, dose series, 48 h
The subject of test [1] is MOLT-4.
Test [2] relates to OVCAR-3.
Test [3] concerns CCRF-CEM.
In test [4] the test system is SK-MEL-5.
Test [5] has as its system RPMI-8226.
The subject of test [6] is COLO 205.
In test [7] the test system is A498.
Test [8] deals with NCI-H460.
In test [9] the test system is K562.
For test [10], the system named is LOX IMVI.
For test [11], the system named is KM12.
Test [12] deals with M14.
For test [13], the system named is UACC-62.
For test [14], the system named is SK-MEL-28.
The subject of test [15] is SF-268.
Test [16] concerns TK-10.
The subject of test [17] is HCT-15.
For test [18], the system named is SK-OV-3.

On to `COc1ccc(/C(=C\c2cc(OC)c(OC)c(OC)c2)C(=O)O)cc1`, for which the GI50 was 27.5 µM (inactive) in test [1]; 32 µM (inactive) in test [2]; 32.5 µM (inactive) in test [3]; 16 µM (inactive) in [4]; 27.4 µM (inactive) in [5]; 18.3 µM (inactive) in test [6]. Besides, the GI50 in test [7] was 15.9 µM (inactive); in test [8] it was 35.6 µM (inactive); in [9] it was 25.8 µM (inactive); in test [10], 27.5 µM (inactive); in [11] it was 25.4 µM (inactive); in test [12] it was 26.6 µM (inactive). Besides, the GI50 in test [13] was 37 µM (inactive); in test [14], 76.4 µM (inactive); in test [15], 51.6 µM (inactive); in test [16], 87.9 µM (inactive); in test [17] it was 32.1 µM.

With `CCOC(=O)C1N(S(=O)(=O)c2ccc(C)cc2)CCC12C(c1ccc(OC)c(OC)c1)=Nc1ccccc12` (stereo not given), the GI50 in test [2], in [3], in test [4], in test [5], in [6] and in test [7] was > 100 µM (inactive) in each case. Further, the GI50 in test [8], in [9], in test [10], in test [11], in [18] and in [12] was > 100 µM (inactive) each time. The GI50 in test [13] is > 100 µM (inactive); in [14], > 100 µM (inactive); in test [15] it was 47.8 µM (inactive); in test [16], > 100 µM (inactive).

Take `CCOC(=O)c1cc(=O)n(C)c(=O)n1C`: the GI50 in test [1], in test [2], in test [3], in test [4], in test [6] and in test [7] was > 100 µM (inactive) each time. For the same compound, the GI50 in [8], in [9], in test [10], in test [11], in [18] and in test [12] was > 100 µM (inactive) in each case. The GI50 in [13] is > 100 µM (inactive); in test [14] it was > 100 µM (inactive); in test [15], > 100 µM (inactive); in [16] it was > 100 µM (inactive); in test [17], over 100 µM.

`CC1=N/C(=C\c2ccc(/C=C3/N=C(C)OC3=O)cc2)C(=O)O1`: the GI50 is > 10 µM (inactive) in test [1]; > 100 µM (inactive) in test [2]; > 100 µM (inactive) in [3]; > 100 µM (inactive) in [4]; > 100 µM (inactive) in [5]; > 100 µM (inactive) in test [6]. The GI50 in test [7], in [9], in test [10], in [11], in test [18] and in test [12] was > 100 µM (inactive) each time. The GI50 in test [13] was > 100 µM (inactive); in [14] it was > 100 µM (inactive); in test [15], > 100 µM (inactive); in test [16], > 100 µM (inactive); in test [17], over 100 µM.

Consider `O=c1c2cc(Br)ccc2nc(-c2ccccc2)n1NCC1(O)OCC(O)C(O)C1O` (stereo not given), for which the GI50 in test [1] was 72.8 µM (inactive); in [2], 81.8 µM (inactive); in test [3], 40.2 µM (inactive); in [4] it was > 100 µM (inactive); in [5] it was > 100 µM (inactive); in test [6], > 100 µM (inactive). Moreover, the GI50 in test [7], in test [8], in test [9], in [10], in test [11] and in [18] was > 100 µM (inactive) in each case. Also, the GI50 in test [12] is > 100 µM (inactive); in test [13], > 100 µM (inactive); in [14], > 100 µM (inactive); in test [15], > 100 µM (inactive); in test [17] it was over 100 µM.

With `CC1(C)OC2OC(/C=C/[N+](=O)[O-])C3OC(C)(C)OC3C2O1` (stereo not given), the GI50 in test [1] was 3.01 µM (inactive); in test [2], 16.4 µM (inactive); in test [3] it was 2.94 µM (inactive); in test [4] it was 16.6 µM (inactive); in test [6], 4.6 µM (inactive); in [7], 20.5 µM (inactive). Besides, the GI50 in [8] was 15.4 µM (inactive); in test [9], 6.84 µM (inactive); in test [10] it was 7.5 µM (inactive); in test [11], 17.2 µM (inactive); in [18] it was 20.6 µM (inactive); in [12] it was 12.3 µM (inactive). Besides, the GI50 in [13] was 15.1 µM (inactive); in test [14] it was 18.2 µM (inactive); in test [15] it was 19.8 µM (inactive); in test [16] it was 5.26 µM (inactive); in [17], 2.25 µM.

Turning to `CCN(CC)C(=O)CCn1cc(F)c(=O)[nH]c1=O`, the GI50 in test [1], in [2], in test [3], in test [4], in test [5] and in [6] was > 100 µM (inactive) throughout. Also, the GI50 in [8], in test [9], in [10], in test [11], in [12] and in test [13] was > 100 µM (inactive) throughout. Further, the GI50 in test [14] was > 100 µM (inactive); in [15] it was > 100 µM (inactive); in [16] it was > 100 µM (inactive); in test [17] it was over 100 µM.

In the case of `N#Cc1ccccc1NC(=O)/C(=N\N)C(C(=O)c1ccncc1)C1OC(=O)c2ccccc21` (stereo not given), the GI50 in test [1], in test [2], in test [3], in test [4], in test [5] and in test [6] was > 100 µM (inactive) throughout. Also, the GI50 in test [8], in test [9], in test [10], in test [11], in test [18] and in [12] was > 100 µM (inactive) in each case. For the same compound, the GI50 in test [13] is > 100 µM (inactive); in [14], > 100 µM (inactive); in test [15], > 100 µM (inactive); in [16], > 100 µM (inactive); in test [17] it was over 100 µM.

As to `CCCCCCCCCCCCCP(=O)(O)O`, the GI50 in test [2], in test [3], in test [4], in [6], in [7] and in [8] was > 100 µM (inactive) each time. The GI50 in test [10], in [11], in [18], in [12], in test [13] and in [14] was > 100 µM (inactive) in each case. Moreover, the GI50 in test [15] is > 100 µM (inactive); in test [16] it was > 100 µM (inactive); in [17], over 100 µM.

Regarding `CNC(=S)NC(=S)N(C)C`, the GI50 in test [1] was 3.61 µM (inactive); in test [2] it was 3.18 µM (inactive); in test [5] it was 1.67 µM (inactive); in [7], > 100 µM (inactive); in [8], 2.71 µM (inactive); in test [9], 1.75 µM (inactive). Also, the GI50 is 4.95 µM (inactive) in test [10]; > 100 µM (inactive) in test [18]; > 100 µM (inactive) in test [12]; 6.32 µM (inactive) in test [14]; > 100 µM (inactive) in test [15]; > 100 µM (inactive) in [16]. Also, the GI50 in [17] is over 100 µM.

For `NNC(=S)N/N=C/C(=C/Nc1ccccc1)[N+](=O)[O-]`, the GI50 was > 100 µM (inactive) in test [2]; > 100 µM (inactive) in test [5]; > 100 µM (inactive) in [6]; 10 µM (inactive) in test [9]; > 100 µM (inactive) in test [10]; > 100 µM (inactive) in test [18]. Also, the GI50 in test [12], in test [13], in test [14], in test [15] and in test [16] was > 100 µM (inactive) in each case.

As to `COC(=O)C(=O)C(C(=O)C(=O)Nc1cc(Cl)c(Cl)cc1Cl)c1nc2ccc([N+](=O)[O-])cc2nc1O` (stereo not given), the GI50 in [1], in test [3], in [4], in test [5], in [6] and in test [9] was > 100 µM (inactive) throughout. Further, the GI50 in test [10], in test [11], in [18], in test [12], in [13] and in test [14] was > 100 µM (inactive) throughout. Further, the values for the GI50 in test [15], in test [16] and in test [17] were > 100 µM (inactive), > 100 µM (inactive) and over 100 µM, respectively.

As to `COc1ccc(Nc2nc3c(N)cc(C(F)(F)F)cc3nc2-c2ccccc2)cc1OC`, the GI50 was 66.7 µM (inactive) in [1]; 18.8 µM (inactive) in test [2]; > 100 µM (inactive) in test [3]; 20.4 µM (inactive) in [4]; 55.7 µM (inactive) in test [6]; 31.8 µM (inactive) in [7]. For the same compound, the GI50 in test [8] is 27.3 µM (inactive); in test [9] it was 63 µM (inactive); in [10], 40.6 µM (inactive); in test [11], 29.3 µM (inactive); in [18] it was 12.7 µM (inactive); in [12], 28.6 µM (inactive). For the same compound, the GI50 was 19.7 µM (inactive) in test [13]; 26.2 µM (inactive) in [14]; 16.5 µM (inactive) in [15]; 21.3 µM (inactive) in [16]; 33.4 µM in test [17].
